Measurements reported in ChEMBL document CHEMBL4627340, “Design, synthesis, and biological activity of new endomorphin analogs with multi-site modifications” (Bioorg Med Chem, 2020).

What was measured:
Mu-type opioid receptor [1] = target: Mu-type opioid receptor (Rattus norvegicus, UniProt P33535); test: Displacement of [3H]-DAMGO from Wistar rat mu opioid receptor incubated for 1 hr by liquid scintillation counting method
Mu-type opioid receptor [2] = target: T1, Mu-type opioid receptor (Homo sapiens, UniProt P35372); test: Agonist activity at mu opioid receptor (unknown origin) expressed in human HEK293 cells assessed as […] in cAMP accumulation using [3H]-cAMP as substrate measured after 30mins by liquid scintillation counting method; type: functional, cell-based
[3] = target: Delta-type opioid receptor (Rattus norvegicus, UniProt P33533); test: Displacement of [3H]-DPDPE from Wistar rat delta opioid receptor incubated for 3 hrs by liquid scintillation counting method
Mu-type opioid receptor [4] = target: T1, Mu-type opioid receptor; test: Agonist activity at mu opioid receptor (unknown origin) expressed in human HEK293 cells assessed as […] in cAMP accumulation using [3H]-cAMP as substrate measured after 30mins by liquid scintillation counting method relative to control; type: functional, cell-based
Mus musculus [5] = test: Antinociceptive activity in kunming mouse models assessed as maximum possible effect at 3 mg/kg, iv measured after 5 to 60 mins by warm water tail-flick assay; type: functional
Mus musculus [6] = test: Antinociceptive activity in kunming mouse models of acetic-acid-induced writhing assessed as inhibition of writhing numbers at 0.04 nmol, icv pretreated for 5 mins followed by acetic-acid treatment and measured for 20 mins relative to control; type: functional; set-up: scale not given: the % may be the effect or the level left
Mus musculus [7] = test: Antinociceptive activity in kunming mouse models of formalin-induced hyperalgesia assessed as reduction in pain response of paw licking inflammatory phase at 0.04 nmol, icv measured during phase 1 at 0 to 5 mins relative to control; type: functional; set-up: scale not given: the % may be the effect or the level left
Mus musculus [8] = test: Antinociceptive activity in kunming mouse models assessed as maximum possible effect at 4 nmol, icv measured from 5 to 60 mins by warm water tail-flick assay relative to control; type: functional
Mus musculus [9] = test: Antinociceptive activity in kunming mouse models of formalin-induced hyperalgesia assessed as reduction in time spent on paw shaking inflammatory phase at 0.04 nmol, icv measured during phase 1 at 0 to 5 mins relative to control; type: functional; set-up: scale not given: the % may be the effect or the level left
[10] = Half life in Kunming mouse brain homogenate at 10^-2 mol/L by RP-HPLC analysis; type: ADME, tissue-based
Mus musculus [11] = test: Antinociceptive activity in icv administered kunming mouse models of formalin-induced hyperalgesia assessed reduction in time spent on paw biting during inflammatory phase 2 at 15 to 30 mins; type: functional; set-up: scale not given: the % may be the effect or the level left
Mus musculus [12] = test: Antinociceptive activity in icv administered kunming mouse models of formalin-induced hyperalgesia assessed reduction in time spent on paw shaking during inflammatory phase 2 at 15 to 30 mins; type: functional; set-up: scale not given: the % may be the effect or the level left
Mus musculus [13] = test: Antinociceptive activity in kunming mouse models of formalin-induced hyperalgesia assessed as reduction in time spent on paw shaking inflammatory phase at 4 nmol, icv measured during phase 2 at 15 to 30 mins relative to control; type: functional; set-up: scale not given: the % may be the effect or the level left
Mus musculus [14] = test: Antinociceptive activity in kunming mouse models of formalin-induced hyperalgesia assessed as reduction in time spent on paw biting inflammatory phase at 4 nmol, icv measured during phase 2 at 15 to 30 mins relative to control; type: functional; set-up: scale not given: the % may be the effect or the level left
Mus musculus [15] = test: Antinociceptive activity in kunming mouse models assessed as maximum possible effect at 0.4 nmol, icv measured from 5 to 60 mins by warm water tail-flick assay relative to control; type: functional
Mus musculus [16] = test: Antinociceptive activity in kunming mouse models of formalin-induced hyperalgesia assessed as reduction in time spent on paw biting inflammatory phase at 4 nmol, icv measured during phase 1 at 0 to 5 mins relative to control; type: functional; set-up: scale not given: the % may be the effect or the level left
Mus musculus [17] = test: Antinociceptive activity in kunming mouse models of formalin-induced hyperalgesia assessed as reduction in pain response of paw licking inflammatory phase at 4 nmol, icv measured during phase 1 at 0 to 5 mins relative to control; type: functional; set-up: scale not given: the % may be the effect or the level left
Mus musculus [18] = test: Antinociceptive activity in kunming mouse models of formalin-induced hyperalgesia assessed as reduction in time spent on paw biting inflammatory phase at 0.04 nmol, icv measured during phase 1 at 0 to 5 mins relative to control; type: functional; set-up: scale not given: the % may be the effect or the level left
Mus musculus [19] = test: Antinociceptive activity in kunming mouse models assessed as effective dose after icv administration measured from 5 to 60 mins by warm water tail-flick assay; type: functional
Mus musculus [20] = test: Antinociceptive activity in icv administered kunming mouse models of formalin-induced hyperalgesia assessed reduction in pain response of paw licking during inflammatory phase 2 at 15 to 30 mins; type: functional, organism-based
[21] = Half life in Kunming mouse serum at 10^-2 mol/L by RP-HPLC analysis; type: ADME, cell-free
Mus musculus [22] = test: Antinociceptive activity in kunming mouse models of formalin-induced hyperalgesia assessed as reduction in pain response of paw licking inflammatory phase at 4 nmol, icv measured during phase 2 at 15 to 30 mins relative to control; type: functional; set-up: scale not given: the % may be the effect or the level left
Mus musculus [23] = test: Antinociceptive activity in kunming mouse models of formalin-induced hyperalgesia assessed as reduction in time spent on paw shaking inflammatory phase at 4 nmol, icv measured during phase 1 at 0 to 5 mins relative to control; type: functional; set-up: scale not given: the % may be the effect or the level left

Mu-type opioid receptor (Rattus norvegicus, UniProt P33535), sequence (P33535 whole entry): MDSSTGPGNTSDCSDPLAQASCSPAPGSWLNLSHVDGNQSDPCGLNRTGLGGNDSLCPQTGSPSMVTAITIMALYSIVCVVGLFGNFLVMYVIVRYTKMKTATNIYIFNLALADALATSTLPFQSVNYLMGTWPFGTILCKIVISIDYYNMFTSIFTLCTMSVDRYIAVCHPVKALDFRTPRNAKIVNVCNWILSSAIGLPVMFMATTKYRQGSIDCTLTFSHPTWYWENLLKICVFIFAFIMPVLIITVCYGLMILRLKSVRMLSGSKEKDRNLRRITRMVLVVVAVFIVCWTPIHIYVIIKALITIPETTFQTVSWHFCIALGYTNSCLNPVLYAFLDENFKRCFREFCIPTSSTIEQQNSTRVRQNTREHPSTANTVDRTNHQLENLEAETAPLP
T1 sequence (P35372 whole entry): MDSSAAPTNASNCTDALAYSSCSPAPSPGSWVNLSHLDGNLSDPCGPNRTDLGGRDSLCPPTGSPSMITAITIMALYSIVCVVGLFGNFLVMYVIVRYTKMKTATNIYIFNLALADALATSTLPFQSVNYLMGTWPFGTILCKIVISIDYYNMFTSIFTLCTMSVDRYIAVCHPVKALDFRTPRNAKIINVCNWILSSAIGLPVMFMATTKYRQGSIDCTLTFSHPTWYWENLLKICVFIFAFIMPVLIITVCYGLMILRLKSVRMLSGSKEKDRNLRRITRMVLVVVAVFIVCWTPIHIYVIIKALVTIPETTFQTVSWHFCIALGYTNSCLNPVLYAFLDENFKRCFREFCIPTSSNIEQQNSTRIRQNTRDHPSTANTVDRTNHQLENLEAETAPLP
Delta-type opioid receptor, sequence (P33533 whole entry): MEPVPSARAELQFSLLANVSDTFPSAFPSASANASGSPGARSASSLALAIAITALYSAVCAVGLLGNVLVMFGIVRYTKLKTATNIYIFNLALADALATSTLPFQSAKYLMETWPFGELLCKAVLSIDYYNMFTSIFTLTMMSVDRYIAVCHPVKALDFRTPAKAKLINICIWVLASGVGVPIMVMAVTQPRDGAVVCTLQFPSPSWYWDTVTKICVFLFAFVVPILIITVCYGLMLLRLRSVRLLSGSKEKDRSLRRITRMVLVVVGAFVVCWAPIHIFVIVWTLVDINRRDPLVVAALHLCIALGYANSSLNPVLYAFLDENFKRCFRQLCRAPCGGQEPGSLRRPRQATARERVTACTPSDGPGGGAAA

In the case of `C=C(C(N)=O)[C@@H](NC(=O)[C@H](Cc1c[nH]c2ccccc12)NC(=O)[C@@H](CCCCN)NC(=O)[C@@H](N)Cc1ccc(O)cc1)c1ccco1`, the Ki (Mu-type opioid receptor [1]) is reported as 172 nM, the EC50 (Mu-type opioid receptor [2]) is reported as 1130 nM and the Ki [3] is reported as > 10 µM. It also gave an Emax (Mu-type opioid receptor [4]) of 65.8%.

In the case of `C=C(C(N)=O)[C@@H](NC(=O)[C@H](Cc1ccccc1)NC(=O)[C@@H](CN)NC(=O)[C@@H](N)Cc1ccc(O)cc1)c1ccco1`, the Ki (Mu-type opioid receptor [1]) is reported as 53 nM, the EC50 (Mu-type opioid receptor [2]) is reported as 1500 nM and the Ki [3] is reported as > 10 µM. The Emax (Mu-type opioid receptor [4]) was 62.3%.

In the case of `C=C(C(N)=O)[C@@H](NC(=O)[C@H](Cc1c[nH]c2ccccc12)NC(=O)[C@@H](CCCN)NC(=O)[C@@H](N)Cc1ccc(O)cc1)c1ccco1`, the Ki (Mu-type opioid receptor [1]) is reported as 437 nM, the EC50 (Mu-type opioid receptor [2]) is reported as 89.3 nM and the Ki [3] is reported as 0.32 µM. For the same compound, the Emax (Mu-type opioid receptor [4]) was 65.6%.

With `C=C(C(N)=O)[C@@H](NC(=O)[C@H](Cc1c[nH]c2ccccc12)NC(=O)[C@@H](CCCCNC(C)=O)NC(=O)[C@@H](N)Cc1ccc(O)cc1)c1ccco1` the Ki (Mu-type opioid receptor [1]) was 9.21 nM, the EC50 (Mu-type opioid receptor [2]) was 934 nM and the Ki [3] was 3.58 µM. For the same compound, the Emax (Mu-type opioid receptor [4]) was 37.5%.

For `C=C(C(N)=O)[C@@H](NC(=O)[C@H](Cc1ccccc1)NC(=O)[C@@H](CNC(C)=O)NC(=O)[C@@H](N)Cc1ccc(O)cc1)c1ccco1`, the Ki (Mu-type opioid receptor [1]) was 22.4 nM, the EC50 (Mu-type opioid receptor [2]) was 1360 nM and the Ki [3] was > 10 µM. The Emax (Mu-type opioid receptor [4]) was 78.2%.

In the case of `C=C(C(N)=O)[C@@H](NC(=O)[C@H](Cc1c[nH]c2ccccc12)NC(=O)[C@@H](CNC(C)=O)NC(=O)[C@@H](N)Cc1ccc(O)cc1)c1ccco1`, the Ki (Mu-type opioid receptor [1]) is reported as 4.54 nM, the EC50 (Mu-type opioid receptor [2]) is reported as 272 nM and the Ki [3] is reported as > 10 µM. The Emax (Mu-type opioid receptor [4]) was 73.2%.

`CN1CC[C@]23c4c5ccc(O)c4O[C@H]2[C@@H](O)C=C[C@H]3[C@H]1C5` [MORPHINE] gave an MPE (Mus musculus [5]) of 53.6%.

`C=C(C(N)=O)[C@@H](NC(=O)[C@H](Cc1c[nH]c2ccccc12)NC(=O)[C@@H](CCCNC(=N)N)NC(=O)[C@@H](N)Cc1ccc(O)cc1)c1ccco1` showed a Ki (Mu-type opioid receptor [1]) of 4.9 nM, an Activity (Mus musculus [6]) of 100% and an Activity (Mus musculus [7]) of 100%. The Activity (Mus musculus [8]) was 100%, the Activity (Mus musculus [9]) was 100% and the half-life [10] was > 300 min. The EC50 (Mu-type opioid receptor [2]) was 221 nM, the Activity (Mus musculus [11]) was 100% and the Activity (Mus musculus [12]) was 100%. For the same compound, the Activity (Mus musculus [13]) was 100%, the Activity (Mus musculus [14]) was 100% and the MPE (Mus musculus [15]) was 94.7%. It also gave an Activity (Mus musculus [16]) of 100%, an Activity (Mus musculus [17]) of 100% and an Activity (Mus musculus [18]) of 100%. For the same compound, the ED50 (Mus musculus [19]) was 0.025 nmol, the Activity (Mus musculus [20]) was “Dose-dependent effect” and the Ki [3] was 0.955 µM. For the same compound, the half-life [21] was > 300 min, the Activity (Mus musculus [22]) was 100% and the Emax (Mu-type opioid receptor [4]) was 62.7%. It also gave an Activity (Mus musculus [23]) of 100%.
